Holding throughout (assay type): cell-based
One assay concerns SU-DHL-10 cells. As to the kind of experiment: ATPLite growth inhibition assay, SU-DHL-10 cells. Conditions: single agent, FIG. 10. An excerpt: (§1) Cells were thawed from a liquid nitrogen preserved state. […] Assay plates were accepted if they pass the following quality control standards: relative luciferase values were consistent throughout the entire experiment, Z-factor scores were greater than 0.6, untreated/vehicle controls behaved consistently on the plate. […]

The subject of a further assay is DOHH-2 cells. As to the kind of experiment: ATPLite growth inhibition assay, DOHH-2 cells. The conditions noted are these: single agent, FIG. 10.
Text: as §1
(In general: ATP-based viability assays read luminescence as a measure of living cells.)

The next assay concerns OCI-Ly3 cells. As to the kind of experiment: ATPLite growth inhibition assay, OCI-Ly3 cells. Conditions: single agent, FIG. 10.
Text: as §1

The test system of another assay is OCI-Ly19 cells. As to the kind of experiment: ATPLite growth inhibition assay, OCI-Ly19 cells. Conditions: single agent, FIG. 10.
Text: as §1

Another assay has as its system NU-DHL-1 cells. As to the kind of experiment: ATPLite growth inhibition assay, NU-DHL-1 cells. The conditions noted are these: single agent, FIG. 10.
Text: as §1

For assay [1], the system named is panel of 8 DLBCL cell lines. In words: ATPLite growth inhibition assay across panel of 8 DLBCL cell lines. The conditions noted are these: single agent, FIG. 9.
Another assay concerns Pfeiffer cells. In words: ATPLite growth inhibition assay, Pfeiffer cells. Conditions: single agent, FIG. 10.
Text: as §1

For the compound `CN1CCC(c2ccccc2CC(C)(C)Nc2nc(N3CCOCC3)nc(-n3c(C(F)F)nc4ccccc43)n2)CC1` [Compound I, 4-(2-(difluoromethyl)-1H-benzo[d]imidazol-1-yl)-N-(2-methyl-1-(2-(1-methylpiperidin-4-yl)phenyl)propan-2-yl)-6-morpholino-1,3,5-triazin-2-amine], the “growth inhibition effect type” value is “sub-cytostatic effects” with SU-DHL-10 cells; “cytotoxic effects” in the assay on DOHH-2 cells; “cytotoxic effects” in the assay on OCI-Ly3 cells; “cytotoxic effects” with OCI-Ly19 cells; “sub-cytostatic effects” in the assay on NU-DHL-1 cells; “sub-cytostatic effects” in the assay with Pfeiffer cells. The compound also yielded a growth inhibition levels in assay [1] (all cell lines) of over 50%. The compound further gave a GI50 in assay [1] (median across cell line panel, 72 hours) of 1730 nM.

For orientation: GI50 means the concentration at which growth is held to half of that of the control. A high value points to lower sensitivity of the cells.

The record behind these values is patent US20210000838A1, “COMBINATION THERAPY” (MEI Pharma, Inc., priority 2018, published 2021).
